Measurements reported in PubChem BioAssay AID1919008 (Molecular Pharmacology Branch, DTP, NCI, 2023).
pIC50: −log10 of the molar value.

Test system: DMS-114 complex spheroids with HUVEC/MSC, growth % test/control
Experiment: Anticancer human tumor DMS-114 cell line growth inhibition [AhR];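 further: spheroids exposed to agents for 7 days before readout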;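 on viability, T/C: 100% = DMSO vehicle control wells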
Settings: for pIC50: curve of first compound; for viability, T/C: stronger effect = lower value
How it was run: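 Spheroids combined tumor cells with HUVEC endothelial cells and human MSCs as stroma. AhR antagonists were paired with standard or investigational drugs, each dosed in half-log steps down from near clinical Cmax, or from 10 microM where Cmax was unknown.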

[1] = second compound 0.1 µM, first compound 0.000949 µM
[2] = second compound 0.1 µM, first compound 0.003 µM
[3] = second compound 0.1 µM, first compound 0.00949 µM
[4] = second compound 0.1 µM, first compound 0.03 µM
[5] = second compound 0.1 µM, first compound 0.0949 µM
[6] = second compound 0.1 µM, first compound 0.3 µM
[7] = second compound 0.316 µM, first compound 0.000949 µM
[8] = second compound 0.316 µM, first compound 0.003 µM
[9] = second compound 0.316 µM, first compound 0.00949 µM
[10] = second compound 0.316 µM, first compound 0.03 µM
[11] = second compound 0.316 µM, first compound 0.0949 µM
[12] = second compound 0.316 µM, first compound 0.3 µM
[13] = second compound 1 µM, first compound 0.000949 µM
[14] = second compound 1 µM, first compound 0.003 µM
[15] = second compound 1 µM, first compound 0.00949 µM
[16] = second compound 1 µM, first compound 0.03 µM
[17] = second compound 1 µM, first compound 0.0949 µM
[18] = second compound 1 µM, first compound 0.3 µM
[19] = second compound 3.16 µM, first compound 0.000949 µM
[20] = second compound 3.16 µM, first compound 0.003 µM
[21] = second compound 3.16 µM, first compound 0.00949 µM
[22] = second compound 3.16 µM, first compound 0.03 µM
[23] = second compound 3.16 µM, first compound 0.0949 µM
[24] = second compound 3.16 µM, first compound 0.3 µM
[25] = second compound 10 µM, first compound 0.000949 µM
[26] = second compound 10 µM, first compound 0.003 µM
[27] = second compound 10 µM, first compound 0.00949 µM
[28] = second compound 10 µM, first compound 0.03 µM
[29] = second compound 10 µM, first compound 0.0949 µM
[30] = second compound 10 µM, first compound 0.3 µM
[31] = second compound 0.1 µM, first compound 0.0316 µM
[32] = second compound 0.1 µM, first compound 0.1 µM
[33] = second compound 0.1 µM, first compound 0.316 µM
[34] = second compound 0.1 µM, first compound 1 µM
[35] = second compound 0.1 µM, first compound 3.16 µM
[36] = second compound 0.1 µM, first compound 10 µM
[37] = second compound 0.316 µM, first compound 0.0316 µM
[38] = second compound 0.316 µM, first compound 0.1 µM
[39] = second compound 0.316 µM, first compound 0.316 µM
[40] = second compound 0.316 µM, first compound 1 µM
[41] = second compound 0.316 µM, first compound 3.16 µM
[42] = second compound 0.316 µM, first compound 10 µM
[43] = second compound 1 µM, first compound 0.0316 µM
[44] = second compound 1 µM, first compound 0.1 µM
[45] = second compound 1 µM, first compound 0.316 µM
[46] = second compound 1 µM, first compound 1 µM
[47] = second compound 1 µM, first compound 3.16 µM
[48] = second compound 1 µM, first compound 10 µM
[49] = second compound 3.16 µM, first compound 0.0316 µM
[50] = second compound 3.16 µM, first compound 0.1 µM
[51] = second compound 3.16 µM, first compound 0.316 µM
[52] = second compound 3.16 µM, first compound 1 µM
[53] = second compound 3.16 µM, first compound 3.16 µM
[54] = second compound 3.16 µM, first compound 10 µM
[55] = second compound 10 µM, first compound 0.0316 µM
[56] = second compound 10 µM, first compound 0.1 µM
[57] = second compound 10 µM, first compound 0.316 µM
[58] = second compound 10 µM, first compound 1 µM
[59] = second compound 10 µM, first compound 3.16 µM
[60] = second compound 10 µM, first compound 10 µM

CC(C)CC(NC(=O)C(Cc1ccccc1)NC(=O)c1cnccn1)B(O)O (stereo not given) + Cc1cncc(-c2nc(NCCc3c[nH]c4ccccc34)c3ncn(C(C)C)c3n2)c1
pIC50 (second compound 0.1 µM): 8.26
pIC50 (second compound 0.316 µM): 8.28
pIC50 (second compound 1 µM): 8.27
pIC50 (second compound 3.16 µM): 8.33
pIC50 (second compound 10 µM): > 9.02
viability, T/C [1]: 113%
viability, T/C [2]: 102%
viability, T/C [3]: 2.1%
viability, T/C [4]: 0.04%
viability, T/C [5]: 0.04%
viability, T/C [6]: 0.16%
viability, T/C [7]: 102%
viability, T/C [8]: 94.3%
viability, T/C [9]: 1.97%
viability, T/C [10]: 0.04%
viability, T/C [11]: 0.03%
viability, T/C [12]: 0.15%
viability, T/C [13]: 101%
viability, T/C [14]: 99.7%
viability, T/C [15]: 1.76%
viability, T/C [16]: 0.45%
viability, T/C [17]: 0.02%
viability, T/C [18]: 0.26%
viability, T/C [19]: 93.8%
viability, T/C [20]: 80.7%
viability, T/C [21]: 0.87%
viability, T/C [22]: 0.04%
viability, T/C [23]: 0.04%
viability, T/C [24]: 0.18%
viability, T/C [25]: 37.7%
viability, T/C [26]: 28.9%
viability, T/C [27]: 0.42%
viability, T/C [28]: 0.21%
viability, T/C [29]: 0.21%
viability, T/C [30]: 0.3%

CCc1c2c(nc3ccc(O)cc13)-c1cc3c(c(=O)n1C2)COC(=O)[C@]3(O)CC + Cc1cncc(-c2nc(NCCc3c[nH]c4ccccc34)c3ncn(C(C)C)c3n2)c1
pIC50 (second compound 0.1 µM): 8.68
pIC50 (second compound 0.316 µM): 8.66
pIC50 (second compound 1 µM): 8.69
pIC50 (second compound 3.16 µM): 8.80
pIC50 (second compound 10 µM): > 9.02
viability, T/C [1]: 67.4%
viability, T/C [2]: 41.6%
viability, T/C [3]: 21.9%
viability, T/C [4]: 13.8%
viability, T/C [5]: 12.6%
viability, T/C [6]: 12.5%
viability, T/C [7]: 69%
viability, T/C [8]: 43.1%
viability, T/C [9]: 19.9%
viability, T/C [10]: 14.5%
viability, T/C [11]: 15.2%
viability, T/C [12]: 12.2%
viability, T/C [13]: 62.5%
viability, T/C [14]: 43.5%
viability, T/C [15]: 20.7%
viability, T/C [16]: 15.5%
viability, T/C [17]: 9.97%
viability, T/C [18]: 14.7%
viability, T/C [19]: 62.9%
viability, T/C [20]: 33.7%
viability, T/C [21]: 15%
viability, T/C [22]: 13.1%
viability, T/C [23]: 13%
viability, T/C [24]: 12.4%
viability, T/C [25]: 22.1%
viability, T/C [26]: 17.4%
viability, T/C [27]: 9.92%
viability, T/C [28]: 8.3%
viability, T/C [29]: 9%
viability, T/C [30]: 6.26%

Nc1ccccc1NC(=O)c1ccc(CNC(=O)OCc2cccnc2)cc1 + Cc1cncc(-c2nc(NCCc3c[nH]c4ccccc34)c3ncn(C(C)C)c3n2)c1
pIC50 (second compound 0.1 µM): 6.23
pIC50 (second compound 0.316 µM): 6.24
pIC50 (second compound 1 µM): 6.21
pIC50 (second compound 3.16 µM): 6.46
pIC50 (second compound 10 µM): > 7.50
viability, T/C [31]: 97.9%
viability, T/C [32]: 87.5%
viability, T/C [33]: 63.4%
viability, T/C [34]: 39.5%
viability, T/C [35]: 16.3%
viability, T/C [36]: 9.46%
viability, T/C [37]: 89.1%
viability, T/C [38]: 82.1%
viability, T/C [39]: 61.4%
viability, T/C [40]: 39.2%
viability, T/C [41]: 17.5%
viability, T/C [42]: 8.03%
viability, T/C [43]: 85.8%
viability, T/C [44]: 88.4%
viability, T/C [45]: 64.2%
viability, T/C [46]: 38.1%
viability, T/C [47]: 16.9%
viability, T/C [48]: 8.49%
viability, T/C [49]: 89.6%
viability, T/C [50]: 68.2%
viability, T/C [51]: 57%
viability, T/C [52]: 28.2%
viability, T/C [53]: 12.7%
viability, T/C [54]: 8.11%
viability, T/C [55]: 32%
viability, T/C [56]: 34.8%
viability, T/C [57]: 26.3%
viability, T/C [58]: 10.3%
viability, T/C [59]: 3.46%
viability, T/C [60]: 3.1%

O=C(c1cc(Cc2n[nH]c(=O)c3ccccc23)ccc1F)N1CCN(C(=O)C2CC2)CC1 + Cc1cncc(-c2nc(NCCc3c[nH]c4ccccc34)c3ncn(C(C)C)c3n2)c1
pIC50 (second compound 0.1 µM): 5.04
pIC50 (second compound 0.316 µM): 5.01
pIC50 (second compound 1 µM): < 5.00
pIC50 (second compound 3.16 µM): < 5.00
pIC50 (second compound 10 µM): > 7.50
viability, T/C [31]: 92.1%
viability, T/C [32]: 102%
viability, T/C [33]: 105%
viability, T/C [34]: 98.1%
viability, T/C [35]: 91.4%
viability, T/C [36]: 46.4%
viability, T/C [37]: 108%
viability, T/C [38]: 96%
viability, T/C [39]: 102%
viability, T/C [40]: 102%
viability, T/C [41]: 89.4%
viability, T/C [42]: 49.1%
viability, T/C [43]: 96.7%
viability, T/C [44]: 94.4%
viability, T/C [45]: 76.1%
viability, T/C [46]: 95.2%
viability, T/C [47]: 83.7%
viability, T/C [48]: 58.3%
viability, T/C [49]: 89.9%
viability, T/C [50]: 92.2%
viability, T/C [51]: 77.9%
viability, T/C [52]: 85%
viability, T/C [53]: 73.9%
viability, T/C [54]: 50.4%
viability, T/C [55]: 31.8%
viability, T/C [56]: 46.6%
viability, T/C [57]: 35.3%
viability, T/C [58]: 37%
viability, T/C [59]: 27.8%
viability, T/C [60]: 22.1%
